Results as given in US10450295B2, “Method of using an indolinone molecule and derivatives for inhibiting liver fibrosis and hepatitis” (Acclaim BioMed USA LLC, priority 2013, dated 2019).
Entries after “also recorded” stand apart in the source; their conditions may differ.

Tests used:
collagen type IV = assay: Immunofluorescent staining of HSC cultures, collagen type IV; format: cell-based, human; settings: 0.625 μM, 24-48 hours
Description: Human Hepatic Stellate cells (LX-2 cell line) (HSCs) were obtained from the Key Lab of Regenerative Medicine, Jinan University, Guangzhou, China, which were maintained in Dulbecco's Modified Eagle Medium (DMEM)+10% fetal calf serum and penicillin-streptomycin (100 unit/ml and 0.1 mg/ml, respectively), in 5% CO2 at 37° C. inside a humidified cell incubator. The culture medium was changed every three days. To test the effects of small molecule Hesperadin on the mouse and human HSCs, the cultures were treated with 0.625 μM of Hesperadin for 48 hrs. The cultures were then fixed in ice cold 70% ethanol and incubated in phosphate buffered saline with RNase (0.25 mg/ml), Propidium iodide dye (40 μg/ml) and 0.1% Triton X for an hour at room temperature. For cell cycle analysis, the Propidium iodide stained cells were examined using a flow cytometer (“BD LSRFortessa Cell Analyzer”). The proliferation of HSCs was also evaluated by the MTT staining assay with 3-(4,5-Dimethylthiazol-2-yl)-2,5-diphenyltetrazolium bromide). […] The absorbance (at 570 nm) was measured using a BIORAD 3550 Microplate Reader. […] After washing, the sections were viewed and recorded using a FluoView FV1000 Confocal microscope and/or a Nikon i80 microscope respectively to identify the presence of HSC expressing collagens. The positive staining of Collagen types I, III and IV was analyzed with the Metamorph software.

[1] = tested on: collagen 3A1 gene expression; assay: Real-time RT-PCR in HSC, collagen 3A1; format: cell-based, human; settings: 0.625 μM, FIG. 8
Description: (§1) Human Hepatic Stellate cells (LX-2 cell line) (HSCs) were obtained from the Key Lab of Regenerative Medicine, Jinan University, Guangzhou, China, which were maintained in Dulbecco's Modified Eagle Medium (DMEM)+10% fetal calf serum and penicillin-streptomycin (100 unit/ml and 0.1 mg/ml, respectively), in 5% CO2 at 37° C. inside a humidified cell incubator. The culture medium was changed every three days. To test the effects of small molecule Hesperadin on the mouse and human HSCs, the cultures were treated with 0.625 μM of Hesperadin for 48 hrs. […] The proliferation of HSCs was also evaluated by the MTT staining assay with 3-(4,5-Dimethylthiazol-2-yl)-2,5-diphenyltetrazolium bromide). […] The absorbance (at 570 nm) was measured using a BIORAD 3550 Microplate Reader. […]
(§2) Collagen type-I, -III and -VI, MMP-2, MMP-9 and TIMP-1 gene expression was determined using quantitative real-time PCR. […] Quantitation of mRNA levels was performed using a SYBR® Premix Ex Taq™ Kit (Takara) in an Applied Biosystems 7900HT Fast Real-Time PCR System. To quantify the amount of specific mRNA in the samples, a standard curve was generated for each PCR run using four amounts of the cDNA synthesized from our HSC cultures and liver samples. […] Data was analyzed using a StatView software (Abacus Concepts Inc) with Student's t-test.

MMP-2 gene expression = assay: Real-time RT-PCR in HSC, MMP-2; format: cell-based, human; settings: 0.625 μM, FIG. 9
Description: as §1, §2

MMP-9 gene expression = assay: Real-time RT-PCR in HSC, MMP-9; format: cell-based, human; settings: 0.625 μM, FIG. 10
Description: as §1, §2

TIMP-1 gene expression = assay: Real-time RT-PCR in HSC, TIMP-1; format: cell-based, human; settings: 0.625 μM, FIG. 11
Description: as §1, §2

[2] = tested on: cultured bloodstream forms (BF); settings: read-out: IC50, growth of cultured bloodstream forms (BF); cited from earlier work
Mammalian cells = settings: cited from earlier work

With `CCS(=O)(=O)Nc1ccc2c(c1)/C(=C(/Nc1ccc(CN3CCCCC3)cc1)c1ccccc1)C(=O)N2` [Hesperadin, (Z)—N-(2-oxo-3-(Phenyl(4-(piperidin-1-ylmethyl)phenylamino)methylene)indolin-5-yl)ethanesulfonamide] the “collagen type IV expression (immunofluorescence)” value (collagen type IV) was “significantly inhibited; also recorded: inhibits the synthesis of collagen type IV”, the “Collagen 3A1 mRNA expression” value [1] was “confirmed by real-time RT-PCR analysis” and the “MMP-2 mRNA expression” value (MMP-2 gene expression) was “inhibited”. The “MMP-9 mRNA expression” value (MMP-9 gene expression) was “inhibited”, the “TIMP-1 mRNA expression” value (TIMP-1 gene expression) was “inhibited” and the IC50 [2] was 50 nM. The “time to enter anaphase” value (Mammalian cells; cells arrested by taxol or monastrol) was less than 1 h, the “time cells stayed arrested” value (Mammalian cells; cells in nocodazole) was 3 to 5 h and the “effect on nuclear division and cytokinesis” value (Mammalian cells) was “blocks nuclear division and cytokinesis”.
